Assay results from ChEMBL document CHEMBL1201862, “PubChem BioAssay data set” (2004).
The source made the active and inactive calls.

What was measured:
[1] = RKO cell viability reduction, dose response, CellTiter-Glo luminescence (AID 1117322); assay type: functional
[2] = target: HSP90 (Plasmodium falciparum 3D7, UniProt Q8IL32); assay type: functional, organism-based
[3] = cytotoxicity toward HCT116 cells – cell-based, CellTiter-Glo luminescence, IC50, dose response (AID 1117332); assay type: functional; settings: HCT-116
[4] = target: Mu-type opioid receptor (Homo sapiens, UniProt P35372); experiment: HTS Image-Based Screen for Agonists of the MOR Receptor. [Related pubchem assays (depositor defined):AID1777, AID1785, AID1786, AID2133]; assay type: functional;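 also: imaging of beta-arrestin GFP recruitment into spots after receptor activation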
Chain of Mu-type opioid receptor (P35372 whole entry): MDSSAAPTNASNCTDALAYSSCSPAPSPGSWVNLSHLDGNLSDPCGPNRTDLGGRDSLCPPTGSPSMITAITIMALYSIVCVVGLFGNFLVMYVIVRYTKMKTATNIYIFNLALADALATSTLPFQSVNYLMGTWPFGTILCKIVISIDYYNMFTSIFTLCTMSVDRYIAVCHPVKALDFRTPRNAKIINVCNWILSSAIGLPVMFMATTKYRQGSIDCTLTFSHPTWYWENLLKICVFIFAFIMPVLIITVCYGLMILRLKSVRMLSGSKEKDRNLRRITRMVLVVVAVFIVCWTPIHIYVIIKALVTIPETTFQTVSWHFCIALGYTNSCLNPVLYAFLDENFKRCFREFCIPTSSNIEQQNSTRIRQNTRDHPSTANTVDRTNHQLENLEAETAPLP

[5] = SNU-C1 cell viability reduction, dose response, CellTiter-Glo luminescence (AID 1117323); assay type: functional, cell-based
[6] = cytotoxicity toward HT-29 cells – cell-based, CellTiter-Glo luminescence, IC50, dose response (AID 1117330); assay type: functional
[7] = Concentration-dependent survival of SW480 colon cancer line, luminescence detection with CellTiter-Glo, half-maximal inhibitory concentration (AID 1117338); assay type: functional
[8] = target: T1, Delta-type opioid receptor (Homo sapiens, UniProt P41143); experiment: HTS Image-Based Screen for Agonists of the DOR Receptor. [Related pubchem assays (depositor defined):AID1777, AID1786, AID2133]; assay type: functional
T1 sequence (P41143 whole entry): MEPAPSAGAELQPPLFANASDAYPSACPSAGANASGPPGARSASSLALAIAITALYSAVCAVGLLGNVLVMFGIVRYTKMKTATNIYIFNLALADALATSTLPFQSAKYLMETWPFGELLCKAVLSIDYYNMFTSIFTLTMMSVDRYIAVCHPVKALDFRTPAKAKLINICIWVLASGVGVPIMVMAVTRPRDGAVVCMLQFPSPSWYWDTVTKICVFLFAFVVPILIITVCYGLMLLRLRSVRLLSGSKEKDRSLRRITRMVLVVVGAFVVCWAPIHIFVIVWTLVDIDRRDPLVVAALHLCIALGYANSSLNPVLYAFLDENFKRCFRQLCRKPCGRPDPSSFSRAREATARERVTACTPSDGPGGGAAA

[9] = HCT116 cell viability decrease, GSK3B pretreatment – CellTiter-Glo, IC50, dose response (AID 1117339); assay type: functional; settings: HCT-116
[10] = test system: Streptococcus sp. 'group A'; experiment: growth inhibition of control SK(-) GAS strain, dose response, counter-screen for streptokinase expression inhibitor project, luminescence, kanamycin, BacTiterGlo, confirmation (AID 1900); assay type: functional, organism-based
[11] = CellTiter-Glo luminescent dose response of DLD-1 viability loss (AID 1117352); assay type: functional
[12] = target: T2, Kappa-type opioid receptor (Homo sapiens, UniProt P41145); assay type: functional
T2 sequence (P41145 whole entry): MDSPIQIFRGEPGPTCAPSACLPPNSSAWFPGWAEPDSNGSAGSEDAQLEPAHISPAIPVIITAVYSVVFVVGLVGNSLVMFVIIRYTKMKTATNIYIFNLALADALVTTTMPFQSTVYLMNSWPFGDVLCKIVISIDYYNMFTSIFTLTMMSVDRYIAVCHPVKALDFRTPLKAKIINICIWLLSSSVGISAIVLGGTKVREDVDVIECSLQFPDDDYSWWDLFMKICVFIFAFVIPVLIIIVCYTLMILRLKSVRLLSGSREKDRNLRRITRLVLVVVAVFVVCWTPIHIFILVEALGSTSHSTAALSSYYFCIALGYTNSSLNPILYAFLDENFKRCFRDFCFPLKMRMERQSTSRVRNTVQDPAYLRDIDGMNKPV

[13] = HeLa 4N DNA content increase, dose response, cell-based, IC50 (AID 1117351); assay type: functional
[14] = target: Beta-galactosidase (Escherichia coli, UniProt Q8VNN2); assay type: functional
Chain of Beta-galactosidase (Q8VNN2 whole entry): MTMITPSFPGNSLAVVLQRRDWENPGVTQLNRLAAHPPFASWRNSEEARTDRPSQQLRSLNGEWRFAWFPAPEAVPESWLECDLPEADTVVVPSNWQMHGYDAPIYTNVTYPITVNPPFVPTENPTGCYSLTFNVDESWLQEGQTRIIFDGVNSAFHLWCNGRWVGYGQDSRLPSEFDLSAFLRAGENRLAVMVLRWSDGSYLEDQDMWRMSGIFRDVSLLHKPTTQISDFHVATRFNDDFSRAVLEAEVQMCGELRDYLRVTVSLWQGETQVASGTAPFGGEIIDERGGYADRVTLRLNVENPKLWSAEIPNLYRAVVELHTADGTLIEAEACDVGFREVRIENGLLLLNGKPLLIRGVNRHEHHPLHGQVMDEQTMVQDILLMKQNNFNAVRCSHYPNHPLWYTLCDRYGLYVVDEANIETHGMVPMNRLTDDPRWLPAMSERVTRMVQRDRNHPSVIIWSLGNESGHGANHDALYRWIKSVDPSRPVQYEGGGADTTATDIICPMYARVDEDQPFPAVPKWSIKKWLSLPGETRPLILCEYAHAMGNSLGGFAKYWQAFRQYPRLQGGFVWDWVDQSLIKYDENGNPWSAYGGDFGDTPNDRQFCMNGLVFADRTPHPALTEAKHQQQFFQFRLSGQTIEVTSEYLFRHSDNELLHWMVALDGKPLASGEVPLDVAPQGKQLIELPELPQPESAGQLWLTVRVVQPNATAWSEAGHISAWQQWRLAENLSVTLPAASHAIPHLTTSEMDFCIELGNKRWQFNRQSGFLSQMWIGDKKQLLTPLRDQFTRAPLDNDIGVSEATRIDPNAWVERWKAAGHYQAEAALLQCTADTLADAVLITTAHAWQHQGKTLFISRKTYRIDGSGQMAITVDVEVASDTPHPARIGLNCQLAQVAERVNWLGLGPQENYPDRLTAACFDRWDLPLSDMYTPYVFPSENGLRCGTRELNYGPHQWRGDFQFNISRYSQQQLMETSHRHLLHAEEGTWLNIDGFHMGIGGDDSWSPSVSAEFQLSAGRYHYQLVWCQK

[15] = target: T1, Delta-type opioid receptor; experiment: HTS Image-Based Screen for Antagonists of the DOR Receptor. [Related pubchem assays (depositor defined):AID1777, AID1785, AID1786, AID2133]; assay type: functional
[16] = target: T2, Kappa-type opioid receptor; assay type: functional; remark: listed apart in the source
[17] = cytotoxicity toward Colo320 cells – cell-based, CellTiter-Glo luminescence, IC50, dose response (AID 1117334); assay type: functional; settings: COLO 320
[18] = target: Heat shock protein HSP 90-alpha (Homo sapiens, UniProt P07900); assay type: functional, organism-based
[19] = test system: Streptococcus; experiment: Group A Streptococcus viability loss, dose response, counter-screen for streptokinase expression inhibitor project, luminescence, BacTiterGlo (AID 1915); assay type: functional, organism-based;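 also: potency for reduction of bacterial viability or growth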
[20] = HeLa 2N DNA content increase, dose response, cell-based, IC50 (AID 1117349); assay type: functional

Chain of HSP90 (Q8IL32 whole entry): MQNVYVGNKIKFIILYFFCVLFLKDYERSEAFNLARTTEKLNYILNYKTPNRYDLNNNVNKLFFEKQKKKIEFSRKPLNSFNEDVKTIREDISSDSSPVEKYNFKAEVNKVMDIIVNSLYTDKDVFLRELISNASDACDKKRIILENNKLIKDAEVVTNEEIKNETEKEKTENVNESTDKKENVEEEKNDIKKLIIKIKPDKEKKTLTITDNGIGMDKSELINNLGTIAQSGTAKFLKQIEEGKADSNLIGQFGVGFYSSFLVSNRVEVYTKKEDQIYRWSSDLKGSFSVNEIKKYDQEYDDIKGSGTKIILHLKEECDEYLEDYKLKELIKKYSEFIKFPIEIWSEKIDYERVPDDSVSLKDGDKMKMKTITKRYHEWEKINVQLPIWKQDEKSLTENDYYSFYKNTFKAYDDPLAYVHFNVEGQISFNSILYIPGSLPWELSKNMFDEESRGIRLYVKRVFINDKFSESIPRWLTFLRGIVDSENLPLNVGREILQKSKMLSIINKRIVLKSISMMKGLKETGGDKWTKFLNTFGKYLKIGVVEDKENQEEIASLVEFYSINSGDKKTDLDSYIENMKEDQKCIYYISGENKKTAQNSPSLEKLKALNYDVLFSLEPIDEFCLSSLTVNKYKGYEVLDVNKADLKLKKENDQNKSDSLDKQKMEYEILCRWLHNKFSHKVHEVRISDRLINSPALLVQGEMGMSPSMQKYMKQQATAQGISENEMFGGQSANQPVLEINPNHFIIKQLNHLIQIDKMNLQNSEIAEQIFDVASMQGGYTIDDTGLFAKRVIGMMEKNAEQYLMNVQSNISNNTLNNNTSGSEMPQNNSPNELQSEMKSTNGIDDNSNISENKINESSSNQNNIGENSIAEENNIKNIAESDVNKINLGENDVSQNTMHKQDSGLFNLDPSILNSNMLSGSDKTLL

What does the source list for `Oc1c(Cl)cc(Cl)c2cccnc12` [CHLOROXINE]?
IC50 [1]: 62.7 nM (active); AC50 [2]: 511 nM (active); IC50 [3]: 47.5 nM (active); EC50 [4]: > 32000 nM (inactive); IC50 [5]: 495 nM (active); IC50 [6]: > 20000 nM (inactive); IC50 [7]: 43.8 nM (active); EC50 [8]: > 32000 nM (inactive); IC50 [9]: 39.3 nM (active); EC50 [10]: 258 nM (active); IC50 [11]: 409 nM (active); IC50 [12]: 4560 nM (active); IC50 [13]: > 10000 nM (inactive); EC50 [14]: > 31500 nM (inactive); IC50 [15]: > 32000 nM (inactive); IC50 [16]: > 32000 nM; IC50 [17]: 49.3 nM (active); AC50 [18]: 1050 nM (active); EC50 [19]: 3310 nM (active); IC50 [20]: > 10000 nM (inactive)
